This data set in a line: Human HepG2 cell viability assay in 384 well format. It counts as toxicity, cell-based. The arrangement: dose 125 nL, time 70.5 hour; cytotoxicity at 70.5 h: concentration not given beside the values. As to conditions: HepG2 cells, read-out: Inhibition.

For the molecule `CCC1=NN2C(=N)/C(=C\c3cccn3-c3ccc(Br)cc3)C(=O)N=C2S1`, the cytotoxicity at 70.5 h amounted to 3.19%.

`CC(=O)N1CC[C@H]2CC(=O)N(Cc3ccc4c(c3)OCO4)CC[C@H]2C1`: the cytotoxicity at 70.5 h was -3.96%.

In the case of `CCNC(=O)N1CC[C@H]2CC(=O)N(CCN3CCNC3=O)CC[C@H]2C1`, the cytotoxicity at 70.5 h is -3.51%.

For the molecule `CC(C)(C)CC(=O)N1CC[C@H]2CC(=O)N(CCc3c[nH]cn3)CC[C@H]2C1`, the cytotoxicity at 70.5 h was -4.11%.

As for `COc1ccc(-c2noc([C@@H]3C[C@@H](O)CN3C3CCN(C)CC3)n2)cc1`, the cytotoxicity at 70.5 h is -2.03%.

As to `COCC(=O)N[C@H]1C[C@H]2C(=O)NC[C@@H](CCC(=O)NC3CC3)N2C1`, the cytotoxicity at 70.5 h was -2.9%.

For the molecule `CN1C[C@H](O)C[C@H]1c1nc(-c2ccc3c(c2)OCO3)no1`, the cytotoxicity at 70.5 h was -0.612%.

`CC(C)(C)c1cc(C[C@H]2CNCC[C@H]2CC(=O)N2CCCCC2)no1`: the cytotoxicity at 70.5 h is -1.6%.

Take `CCN(CC)C(=O)CC[C@@H]1CNC(=O)[C@@H]2C[C@H](NC(=O)C3CC3)CN12`: the cytotoxicity at 70.5 h was -2.96%.

For `CCN(CC)CC[C@H]1CN(C(=O)CC(C)(C)C)CC[C@H]1CC(=O)O`, the cytotoxicity at 70.5 h was -4.24%.

Consider `CN1C[C@@H](NC(=O)CC(C)(C)C)C[C@H]1c1nc(-c2cnccn2)no1`, for which the cytotoxicity at 70.5 h is -0.594%.

Consider `O=C1N[C@@H]2CCN(C(=O)c3ccccc3)[C@@H]2C(=O)N1Cc1ccccc1`, for which the cytotoxicity at 70.5 h is -5.37%.

For the molecule `COCC(=O)N1CCN(C(=O)c2cccs2)[C@@H](C(=O)OC)C1`, the cytotoxicity at 70.5 h was -5%.

As for `CC(=O)N1CC[C@H](c2nc3cc(C)ccc3o2)C1`, the cytotoxicity at 70.5 h worked out at 0.212%.

As for `COC(=O)[C@@H]1Cc2ncn(C)c2CN1S(=O)(=O)c1cccs1`, the cytotoxicity at 70.5 h was -1.34%.

As to `CN1C[C@@H](F)[C@@H](OCc2nc3ccccc3n2C)C1`, the cytotoxicity at 70.5 h was -2.45%.

Regarding `FC(F)(F)c1ccc2[nH]c([C@H]3CCNC3)nc2c1`, the cytotoxicity at 70.5 h is -2.06%.

`c1ccc(-c2noc([C@@H]3Cc4nc[nH]c4CN3)n2)cc1`: the cytotoxicity at 70.5 h is -14%.

In the case of `CS(=O)(=O)c1ccc(-c2c[nH]c([C@@H]3COCCN3)n2)cc1`, the cytotoxicity at 70.5 h was -8.19%.

As for `O=C([C@@H]1Cc2[nH]cnc2CN1CC1CC1)N1CCCC1`, the cytotoxicity at 70.5 h was 9.33%.

Turning to `COCC(=O)Nc1ccc(-c2noc([C@@H]3CCCN3C)n2)cn1`, the cytotoxicity at 70.5 h was -7.79%.

Turning to `CS(=O)(=O)c1ccc(CN2C[C@@H]3OCC(=O)N(CC(N)=O)[C@@H]3C2)cc1`, the cytotoxicity at 70.5 h is -4.08%.

Turning to `CC(=O)NC[C@H]1OC[C@@H](NC2CCC(F)(F)CC2)[C@@H]1O`, the cytotoxicity at 70.5 h was -4.95%.

In the case of `O=S(=O)(NC[C@H]1OC[C@@H](NCc2cccs2)[C@@H]1O)c1ccccc1`, the cytotoxicity at 70.5 h is -10.7%.

`CC(C)NC(=O)N[C@H]1C[C@@H](c2nc(-c3ccncc3)no2)N(C)C1`: the cytotoxicity at 70.5 h is -5.9%.

As for `CC(C)(C)CC(=O)NC[C@H]1OC[C@@H](NC2CCC(F)(F)CC2)[C@@H]1O`, the cytotoxicity at 70.5 h was -5.07%.

Take `Cc1ccc(S(=O)(=O)NC[C@H]2OC[C@@H](NCc3ccncc3)[C@@H]2O)cc1`: the cytotoxicity at 70.5 h is -8.05%.

In the case of `COc1ccc(-c2cn3c(n2)CO[C@@H](CNCc2nccn2C)C3)cc1`, the cytotoxicity at 70.5 h turned out to be 6.44%.

With `F[C@@H]1CN(Cc2nccs2)C[C@@H]1OCc1nc2cnccc2[nH]1`, the cytotoxicity at 70.5 h is -3.2%.

With `Cc1cccc(CNC[C@H]2COCc3nc4cccnc4n32)n1`, the cytotoxicity at 70.5 h was -9.5%.

Turning to `COc1ccc2c(c1)nc1n2[C@@H](CNCc2cnn(C)c2)COC1`, the cytotoxicity at 70.5 h is -8.24%.

For `CN(C)CCN(C)C[C@H]1CN2CC[C@H]1C[C@@H]2CNC(=O)Nc1ccsc1`, the cytotoxicity at 70.5 h was -2.68%.

As to `Cc1ccc(CNC2(Cc3cc(-c4ccccn4)on3)COC2)o1`, the cytotoxicity at 70.5 h was -1.75%.

Turning to `O=C(c1ccno1)N1C[C@@H](F)[C@@H](OCc2nc3ccccc3o2)C1`, the cytotoxicity at 70.5 h amounted to 0.816%.

Consider `Cc1cccc(-c2noc([C@@H]3C[C@@H](O)CN3C3CCOCC3)n2)c1`, for which the cytotoxicity at 70.5 h was -3.79%.

`CN1C(=O)CO[C@H](c2ccc(NC(=O)c3cccnc3)cc2)[C@H]1CO`: the cytotoxicity at 70.5 h was -2.53%.

Regarding `CO[C@H]1COCCN(Cc2c[nH]c3ccccc23)C1`, the cytotoxicity at 70.5 h was -4%.

As to `O=C(C1CC1)N1CC[C@H](c2nnc(-c3ccccc3F)o2)C1`, the cytotoxicity at 70.5 h was -7.55%.

Turning to `O=C(NCCC1=CCCCC1)c1[nH]nc2c1CCCC2`, the cytotoxicity at 70.5 h was 11.2%.

`CN(C)CCCNCC1CCOC(C)(C)C1` (centres undefined): the cytotoxicity at 70.5 h is -3.4%.

Turning to `CCCNC(=O)COc1cccc(-c2nc(C(C)C)no2)c1`, the cytotoxicity at 70.5 h worked out at 0.882%.

For the molecule `CC(C)c1noc(-c2cccc(OCC(N)=O)c2)n1`, the cytotoxicity at 70.5 h is -5.07%.

For `COCCCNc1c(-c2ccccc2)c(=O)c1=O`, the cytotoxicity at 70.5 h is -8.63%.

As for `CCCN(CCC)CCNc1c(-c2ccccc2)c(=O)c1=O`, the cytotoxicity at 70.5 h turned out to be 1.06%.

`COCCNc1c(-c2ccc(Cl)cc2)c(=O)c1=O`: the cytotoxicity at 70.5 h is -7.26%.

Regarding `Cc1nnc(NC(=O)CSCc2cc(=O)n3ccccc3n2)s1`, the cytotoxicity at 70.5 h was -4.73%.

For `Cc1ccn2c(=O)cc(CSCC(=O)Nc3nnc(C(C)C)s3)nc2c1`, the cytotoxicity at 70.5 h stood at 23%.

With `CCC(C)NC(=O)CCn1ccc(C)n1` (centres undefined), the cytotoxicity at 70.5 h was -6.22%.

Take `Cc1ccn(CCC(=O)NCCc2ccco2)n1`: the cytotoxicity at 70.5 h was -3.53%.

For `Cc1nc(N2CCN(C)CC2)ncc1C(=O)N1CCCCCC1`, the cytotoxicity at 70.5 h was -1.12%.

With `CCN(CC)S(=O)(=O)c1ccc2c(c1)N(Cc1ccccn1)C(=O)CS2`, the cytotoxicity at 70.5 h is -4.62%.

On to `CCN(CC)S(=O)(=O)c1ccc2c(c1)N(Cc1cccnc1)C(=O)CS2`, for which the cytotoxicity at 70.5 h is -4.53%.

Consider `CCOC(=O)Cc1csc(NC(=O)c2ccc(=O)[nH]n2)n1`, for which the cytotoxicity at 70.5 h was -5.3%.

For `CCOCCCNc1nc(O)cc(C2CC(=O)N(C)C2)n1` (centres undefined), the cytotoxicity at 70.5 h turned out to be 24.8%.

Turning to `Cc1nc(C2CCN(C(=O)c3cccnc3)CC2)c2sccn12`, the cytotoxicity at 70.5 h turned out to be 0.00673%.

Regarding `Fc1ccc(CN2CCC(c3n[nH]c4nccnc34)CC2)cc1F`, the cytotoxicity at 70.5 h turned out to be 7.75%.

For the molecule `O=C1NCC2(CCCN(Cc3ccccc3F)C2)Oc2ccccc21` (centres undefined), the cytotoxicity at 70.5 h was -14.5%.

For the molecule `Cc1csc2c(=O)n3c(nc12)CCN(C(=O)c1cccnc1)CC3`, the cytotoxicity at 70.5 h was -19.9%.

Turning to `NC(=O)C1CCCN(Cc2c(-c3ccco3)[nH]c3ncccc23)C1` (centres undefined), the cytotoxicity at 70.5 h was -10.6%.

In the case of `CS(=O)(=O)N1CCC(C(=O)NC(Cc2ccsc2)c2nccs2)CC1` (centres undefined), the cytotoxicity at 70.5 h was -20.6%.

For the molecule `Fc1cccc(CN2CCC(c3n[nH]c4ncccc34)CC2)c1F`, the cytotoxicity at 70.5 h was -9.75%.

Regarding `O=C(NC(Cc1ccsc1)c1nccs1)C1CCOCC1` (centres undefined), the cytotoxicity at 70.5 h was -14.6%.

As to `Cc1ccc2cc(CNCCCN3CCOCC3)c(=O)[nH]c2c1`, the cytotoxicity at 70.5 h was -13%.

Take `COCc1cc(O)nc(C2CCCN(Cc3cc(OC)ccc3F)C2)n1` (centres undefined): the cytotoxicity at 70.5 h is -4.84%.

With `CN(C)c1ncc(CN2CCC(c3nnsc3S(C)(=O)=O)CC2)cn1`, the cytotoxicity at 70.5 h is -19.4%.

In the case of `Cc1ccsc1-c1nnc(C2CCN(Cc3ccc(F)cc3)CC2)o1`, the cytotoxicity at 70.5 h was -21.5%.

`CN(C)Cc1ccnc(C2CCCN2Cc2cc[nH]n2)n1` (centres undefined): the cytotoxicity at 70.5 h is -1.65%.

`Cc1ccccc1-c1cncc(C2CCN(C)CC2)n1`: the cytotoxicity at 70.5 h was -14.3%.

Regarding `CO[C@H]1CN(C(=O)c2ccc3oc(C)cc3c2)CC[C@@]12CCCO2`, the cytotoxicity at 70.5 h was -13.4%.

`O=C(COc1cccc(F)c1)N1C[C@@H](O)[C@H](N2CCCC2)C1`: the cytotoxicity at 70.5 h is -10.1%.

Consider `COc1cccc(OC)c1C(=O)N1CCN(c2ccccc2F)CC1`, for which the cytotoxicity at 70.5 h was 39%.

As for `CCc1cc(O)nc(C2CCCN2C(=O)c2cc(C)no2)n1` (centres undefined), the cytotoxicity at 70.5 h was 8.47%.

For the molecule `CCc1cc(C(=O)N2CCCC2c2nc(C)c(F)c(O)n2)on1` (centres undefined), the cytotoxicity at 70.5 h is 4.3%.

Turning to `Nc1nc2nc(C3CCCN(C(=O)c4cscn4)C3)ccc2s1` (centres undefined), the cytotoxicity at 70.5 h worked out at 9.1%.

As for `CNc1cccc(C2CCCN(C(C)=O)C2)n1` (centres undefined), the cytotoxicity at 70.5 h was -19.3%.

Regarding `CCC(=O)N1CCCC1c1nccnc1Nc1nc(C)cc(C)n1` (centres undefined), the cytotoxicity at 70.5 h is -14%.

On to `CN(Cc1ccc(F)cc1)[C@@H]1CN(C(=O)c2cccs2)C[C@H]1O`, for which the cytotoxicity at 70.5 h is -17.9%.

For the molecule `CN(c1ccncn1)C1CC2(CCN(C(=O)c3ccsc3)C2)C1` (centres undefined), the cytotoxicity at 70.5 h is -28.9%.

With `NCc1cn(-c2ccccc2C(=O)NCc2cccc(Cl)c2)cn1`, the cytotoxicity at 70.5 h was -13.7%.

For the molecule `Cc1cccc(C(=O)N2CCC(Cc3cnc4[nH]ccc4c3)CC2)n1`, the cytotoxicity at 70.5 h was -7.84%.

In the case of `Cc1cncc(C2CCCN(C(=O)c3c[nH]c(=O)[nH]c3=O)C2)n1` (centres undefined), the cytotoxicity at 70.5 h was -22.8%.

Regarding `COc1cccc(S(=O)(=O)N2CCC(O)(CN(C)C)C2)c1` (centres undefined), the cytotoxicity at 70.5 h was -19.7%.

`Cc1nc(O)c2nnn(C[C@H]3CCCN3C(=O)C(C)(C)C)c2n1`: the cytotoxicity at 70.5 h was -13.1%.

With `COc1ccc(CN2CCC3(CC(Nc4ccncn4)C3)C2)c(OC)c1` (centres undefined), the cytotoxicity at 70.5 h is -6.97%.

As to `O=C1CN(Cc2ccc(-c3ccccc3C(=O)O)cc2)CCN1`, the cytotoxicity at 70.5 h was determined as 37.1%.

As to `CNc1ccc(CC2CCCN(C(=O)c3cnc(C)nc3)C2)nn1` (centres undefined), the cytotoxicity at 70.5 h was -6.58%.

On to `CC(=O)N1CCC(c2cc(C(F)(F)F)n3ccnc3n2)CC1`, for which the cytotoxicity at 70.5 h turned out to be 5.43%.

In the case of `Cc1cc(-c2ccc(C(=O)O)cc2)nc(C2CCCN(C(C)C)C2)n1` (centres undefined), the cytotoxicity at 70.5 h is -9.15%.

`CCCC(=O)N1CCC(O)(Cn2c(CC)nc3ccccc3c2=O)CC1`: the cytotoxicity at 70.5 h is -16.7%.

With `COc1cccc(-c2noc(C3CCN(Cc4cccs4)C3)n2)c1` (centres undefined), the cytotoxicity at 70.5 h is 8.44%.

For the molecule `CC(C)(C)C(=O)N1C[C@H](c2ccsc2)[C@H]2CN(Cc3cccs3)CC[C@H]21`, the cytotoxicity at 70.5 h was 0.661%.

Turning to `CNC(=O)[C@@H](c1ccccc1)N1CCC[C@H]1C(=O)NCc1cccnc1`, the cytotoxicity at 70.5 h is -2.18%.

As to `Cc1ccc(CN(Cc2ccccn2)C2CC(C)(C)NC(C)(C)C2)s1`, the cytotoxicity at 70.5 h was -7.96%.

With `COc1cc(O)cc2c1C(=O)CC(c1ccc(O)cc1)O2` (centres undefined), the cytotoxicity at 70.5 h was -14%.
